Laboratory results published in US20260356840A1, “[1,2,4]TRIAZOLO[1,5-A]PYRIMIDINONE WRN INHIBITORS” (Nimbus Wadjet, Inc., priority 2023, published 2026).

These molecules were tested against T1, human Werner helicase (Uniprot Q14191, amino acids 517-1235 with L1074F point mutation), WRN-BV08 (Homo sapiens, UniProt Q14191, L1074F) (assay: WRN (BV08) ADP-Glo Assay).
T1 construct: Uniprot Q14191, amino acids 517-1235 with L1074F point mutation; TEV cleavable 8xHis tag (C, cleaved yes); made in house; host or cells: Sf9 insect cells (baculovirus, pFastBac)
T1 sequence (Q14191 517-1235 L1074F): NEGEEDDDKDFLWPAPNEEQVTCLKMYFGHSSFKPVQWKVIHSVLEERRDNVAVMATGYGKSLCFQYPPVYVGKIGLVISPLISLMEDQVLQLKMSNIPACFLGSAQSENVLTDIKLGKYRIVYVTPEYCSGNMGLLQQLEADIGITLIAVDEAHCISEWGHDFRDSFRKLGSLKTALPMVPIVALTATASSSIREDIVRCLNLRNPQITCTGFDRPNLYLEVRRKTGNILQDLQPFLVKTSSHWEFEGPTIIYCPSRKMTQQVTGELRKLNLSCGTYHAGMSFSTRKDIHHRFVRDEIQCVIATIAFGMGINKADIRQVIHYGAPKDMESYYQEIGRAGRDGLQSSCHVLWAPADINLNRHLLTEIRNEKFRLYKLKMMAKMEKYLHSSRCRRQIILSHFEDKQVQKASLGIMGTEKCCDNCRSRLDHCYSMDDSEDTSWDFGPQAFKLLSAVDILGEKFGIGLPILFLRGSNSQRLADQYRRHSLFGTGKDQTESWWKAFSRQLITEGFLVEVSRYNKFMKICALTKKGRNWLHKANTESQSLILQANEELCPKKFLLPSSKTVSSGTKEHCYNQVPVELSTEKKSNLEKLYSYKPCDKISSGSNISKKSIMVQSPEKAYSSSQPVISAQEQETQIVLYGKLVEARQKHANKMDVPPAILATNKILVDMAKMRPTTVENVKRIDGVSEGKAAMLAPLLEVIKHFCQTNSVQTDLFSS
Format: biochemical
Description: DNA duplex was synthesized at BGI (Shenzhen, China) and was composed of strand 1 with the sequence 5′-[…]-3′ (SEQ ID NO.: 1) and strand 2 with the sequence 5′-[…]-3′ (SEQ ID NO.: 2). DNA strands were annealed by heating to 95 °C for 5 minutes followed by slow cooling to room temperature. […] DMSO (0.1 μl) was added to columns 12, rows A-H and column 24, rows I-P for the maximum signal control.
Where RLU=relative luminescence units, sample=signal in sample well, and MIN and MAX are the respective minimum and maximum signal controls. • Four-parameter IC50 fit equation:
Y=Bottom+(Top−Bottom)/(1+(IC50/X)^Hill Slope)
Where top and bottom are normally allowed to float but may be fixed at 100 or 0 respectively in a 3-parameter fit. Y is the % inhibition and X is the compound concentration.
Molecular Biology and virus production. […] The baculovirus from the expression plasmid WRN-BV08 was generated from transfection and amplification following the manufacturer's instructions.
Sf9 cells grown in SF900II media were infected with 1:200 WRN-BV08 P2 virus and incubated for protein expression for 72 h at 27 °C. The WRN protein was purified using the following protocol. The cell pellets were thawed and resuspended in buffer A (50 mM Tris, pH 7.5, 500 mM NaCl, 1 mM TCEP, 10% Glycerol) supplemented with 0.5% CHAPS, 1 mM [COMPOUND LEFT OUT], 1 μg/ml Leupeptin, 1 μg/ml Pepstatin, and the Pierce Universal Nuclease and cocktail tablet. Cleared lysates were loaded onto a Ni Sepharose™ excel column and washed with buffer A and bound protein was eluted with buffer A supplemented with 300 mM imidazole. The eluted protein was dialyzed against buffer A and digested by His-tagged TEV (1:5 ratio) overnight at 4 °C. […] Untagged WRN protein was eluted from the column with buffer A supplemented with 20 mM imidazole, dialyzed overnight into buffer B (50 mM Tris, pH 7.5, 1 mM TCEP, 10% Glycerol) supplemented with 150 mM NaCl and loaded onto a Heparin column. Proteins were eluted with a step gradient of buffer B supplemented with 150 mM, 200 mM, 300 mM and 500 mM NaCl.
For `CCc1c(N2CCN(C(=O)c3cnn(C)c3)CC2)c(=O)n2nc(-c3nccc(OC)n3)nc2n1CC(=O)Nc1ccc(C(F)(F)F)cc1Cl` [Compound I-70, N-[2-chloro-4-(trifluoromethyl)phenyl]-2-[5-ethyl-2-(4-methoxypyrimidin-2-yl)-6-[4-(1-methyl-1H-pyrazole-4-carbonyl)piperazin-1-yl]-7-oxo-4H,7H-[1,2,4]triazolo[1,5-a]pyrimidin-4-yl]acetamide], the IC50 was 100 to 500 nM. `CCc1c(N2CCN(C(=O)c3cnn(C)c3)CC2)c(=O)n2nc(-c3ccnc(OC)c3)nc2n1CC(=O)Nc1ccc(C(F)(F)F)cc1Cl` [Compound I-48, N-[2-chloro-4-(trifluoromethyl)phenyl]-2-[5-ethyl-2-(2-methoxypyridin-4-yl)-6-[4-(1-methyl-1H-pyrazole-4-carbonyl)piperazin-1-yl]-7-oxo-4H,7H-[1,2,4]triazolo[1,5-a]pyrimidin-4-yl]acetamide] was tested, and the IC50 was less than 5 nM. Work on `CCc1c(N2CCN(C(=O)c3cnn(C)c3)CC2)c(=O)n2nc(-c3ccnc(OC)n3)nc2n1CC(=O)Nc1ccc(C(F)(F)F)cc1Cl` [Compound I-64, N-[2-chloro-4-(trifluoromethyl)phenyl]-2-[5-ethyl-2-(2-methoxypyrimidin-4-yl)-6-[4-(1-methyl-1H-pyrazole-4-carbonyl)piperazin-1-yl]-7-oxo-4H,7H-[1,2,4]triazolo[1,5-a]pyrimidin-4-yl]acetamide] yielded an IC50 of 5 to 50 nM. Molecule `CCc1c(N2CCN(C(=O)c3ncnc(C)c3O)CC2)c(=O)n2nc(-c3ccnc(OC(F)F)c3)nc2n1CC(=O)Nc1ccc(C(F)(F)F)cc1Cl` [Compound I-44, N-[2-chloro-4-(trifluoromethyl)phenyl]-2-{2-[2-(difluoromethoxy)pyridin-4-yl]-5-ethyl-6-[4-(5-hydroxy-6-methylpyrimidine-4-carbonyl)piperazin-1-yl]-7-oxo-4H,7H-[1,2,4]triazolo[1,5-a]pyrimidin-4-yl}acetamide] has an IC50 of 5 to 50 nM. Work on `CCc1c(N2CCN(C(=O)c3cnn(C)c3C)CC2)c(=O)n2nc(-c3ccnc(OC)c3)nc2n1CC(=O)Nc1ccc(C(F)(F)F)cc1Cl` [Compound I-49, N-[2-chloro-4-(trifluoromethyl)phenyl]-2-{6-[4-(1,5-dimethyl-1H-pyrazole-4-carbonyl)piperazin-1-yl]-5-ethyl-2-(2-methoxypyridin-4-yl)-7-oxo-4H,7H-[1,2,4]triazolo[1,5-a]pyrimidin-4-yl}acetamide] yielded an IC50 of 5 to 50 nM. For `CCc1c(N2CCN(C(=O)c3c(F)cccc3F)CC2)c(=O)n2nc(C3=CCOCC3)nc2n1CC(=O)Nc1ccc(C(F)(F)F)cc1Cl` [Compound I-10, N-[2-chloro-4-(trifluoromethyl)phenyl]-2-{6-[4-(2,6-difluorobenzoyl)piperazin-1-yl]-2-(3,6-dihydro-2H-pyran-4-yl)-5-ethyl-7-oxo-4H,7H-[1,2,4]triazolo[1,5-a]pyrimidin-4-yl}acetamide], the IC50 was 5 to 50 nM. In the case of `CCc1c(N2CCN(C(=O)c3cn[nH]n3)CC2)c(=O)n2nc(C3=CCOCC3)nc2n1CC(=O)Nc1ccc(C(F)(F)F)cc1Cl` [Compound I-38, N-[2-chloro-4-(trifluoromethyl)phenyl]-2-[2-(3,6-dihydro-2H-pyran-4-yl)-5-ethyl-7-oxo-6-[4-(2H-1,2,3-triazole-4-carbonyl)piperazin-1-yl]-4H,7H-[1,2,4]triazolo[1,5-a]pyrimidin-4-yl]acetamide], the IC50 is reported as less than 5 nM. In the case of `CCc1c(N2CCN(C(=O)c3cnn(C)c3)[C@H](C)C2)c(=O)n2nc(-c3ccnc(OC)c3)nc2n1CC(=O)Nc1ccc(C(F)(F)F)cc1Cl` [Compound I-77, N-[2-chloro-4-(trifluoromethyl)phenyl]-2-[5-ethyl-2-(2-methoxypyridin-4-yl)-6-[(3R)-3-methyl-4-(1-methyl-1H-pyrazole-4-carbonyl)piperazin-1-yl]-7-oxo-4H,7H-[1,2,4]triazolo[1,5-a]pyrimidin-4-yl]acetamide], the IC50 is reported as 5 to 50 nM. Molecule `CCc1c(N2CCN(C(C)=O)CC2)c(=O)n2nc(-c3cnc(C(C)(C)O)s3)nc2n1CC(=O)Nc1ccc(C(F)(F)F)cc1Cl` [Compound I-87, 2-[6-(4-acetylpiperazin-1-yl)-5-ethyl-2-[2-(2-hydroxypropan-2-yl)-1,3-thiazol-5-yl]-7-oxo-4H,7H-[1,2,4]triazolo[1,5-a]pyrimidin-4-yl]-N-[2-chloro-4-(trifluoromethyl)phenyl]acetamide] has an IC50 of 5 to 50 nM. For `CCc1c(N2CCN(C(=O)c3ccnn3C)CC2)c(=O)n2nc(-c3ccnc(OC)c3)nc2n1CC(=O)Nc1ccc(C(F)(F)F)cc1Cl` [Compound I-66, N-[2-chloro-4-(trifluoromethyl)phenyl]-2-[5-ethyl-2-(2-methoxypyridin-4-yl)-6-[4-(1-methyl-1H-pyrazole-5-carbonyl)piperazin-1-yl]-7-oxo-4H,7H-[1,2,4]triazolo[1,5-a]pyrimidin-4-yl]acetamide], the IC50 was 5 to 50 nM. `CCc1c(N2CCN(C(=O)c3cc(C)ns3)CC2)c(=O)n2nc(-c3ccnc(OC)c3)nc2n1CC(=O)Nc1ccc(C(F)(F)F)cc1Cl` [Compound I-76, N-[2-chloro-4-(trifluoromethyl)phenyl]-2-[5-ethyl-2-(2-methoxypyridin-4-yl)-6-[4-(3-methyl-1,2-thiazole-5-carbonyl)piperazin-1-yl]-7-oxo-4H,7H-[1,2,4]triazolo[1,5-a]pyrimidin-4-yl]acetamide] was tested, and the IC50 was 5 to 50 nM. In the case of `CCc1c(N2CCC3C2CCN3C(=O)c2cnn(C)c2)c(=O)n2nc(C3=CCOCC3)nc2n1CC(=O)Nc1ccc(C(F)(F)F)cc1Cl` (stereo not drawn) [Compound I-68, N-[2-chloro-4-(trifluoromethyl)phenyl]-2-[2-(3,6-dihydro-2H-pyran-4-yl)-5-ethyl-6-[4-(1-methyl-1H-pyrazole-4-carbonyl)-octahydropyrrolo[3,2-b]pyrrol-1-yl]-7-oxo-4H,7H-[1,2,4]triazolo[1,5-a]pyrimidin-4-yl]acetamide], the IC50 is reported as 50 to 100 nM. In the case of `CCc1c(N2CCN(C(=O)c3cc(C)no3)CC2)c(=O)n2nc(-c3ccnc(OC)c3)nc2n1CC(=O)Nc1ccc(C(F)(F)F)cc1Cl` [Compound I-65, N-[2-chloro-4-(trifluoromethyl)phenyl]-2-[5-ethyl-2-(2-methoxypyridin-4-yl)-6-[4-(3-methyl-1,2-oxazole-5-carbonyl)piperazin-1-yl]-7-oxo-4H,7H-[1,2,4]triazolo[1,5-a]pyrimidin-4-yl]acetamide], the IC50 is reported as 5 to 50 nM. `CCc1c(N2CCN(C(=O)c3nc(C)cs3)CC2)c(=O)n2nc(-c3ccnc(OC)c3)nc2n1CC(=O)Nc1ccc(C(F)(F)F)cc1Cl` [Compound I-57, N-[2-chloro-4-(trifluoromethyl)phenyl]-2-[5-ethyl-2-(2-methoxypyridin-4-yl)-6-[4-(4-methyl-1,3-thiazole-2-carbonyl)piperazin-1-yl]-7-oxo-4H,7H-[1,2,4]triazolo[1,5-a]pyrimidin-4-yl]acetamide] showed an IC50 of 100 to 500 nM. For `CCc1c(N2CCN(C(=O)c3cnn(C)c3)CC2)c(=O)n2nc(-c3cccnc3OC)nc2n1CC(=O)Nc1ccc(C(F)(F)F)cc1Cl` [Compound I-54, N-[2-chloro-4-(trifluoromethyl)phenyl]-2-[5-ethyl-2-(2-methoxypyridin-3-yl)-6-[4-(1-methyl-1H-pyrazole-4-carbonyl)piperazin-1-yl]-7-oxo-4H,7H-[1,2,4]triazolo[1,5-a]pyrimidin-4-yl]acetamide], the IC50 was 5 to 50 nM. `CCc1c(N2CCN(C(=O)c3cnn(C)c3)CC2)c(=O)n2nc(C3=CCOCC3)nc2n1CC(=O)Nc1ccc(C(F)(F)F)cc1Cl` [Compound I-23, N-[2-chloro-4-(trifluoromethyl)phenyl]-2-[2-(3,6-dihydro-2H-pyran-4-yl)-5-ethyl-6-[4-(1-methyl-1H-pyrazole-4-carbonyl)piperazin-1-yl]-7-oxo-4H,7H-[1,2,4]triazolo[1,5-a]pyrimidin-4-yl]acetamide] showed an IC50 of 5 to 50 nM. In the case of `CCc1c(N2CCN(C(=O)c3cnn(C4CC4)c3)CC2)c(=O)n2nc(-c3ccnc(OC)c3)nc2n1CC(=O)Nc1ccc(C(F)(F)F)cc1Cl` [Compound I-60, N-[2-chloro-4-(trifluoromethyl)phenyl]-2-{6-[4-(1-cyclopropyl-1H-pyrazole-4-carbonyl)piperazin-1-yl]-5-ethyl-2-(2-methoxypyridin-4-yl)-7-oxo-4H,7H-[1,2,4]triazolo[1,5-a]pyrimidin-4-yl}acetamide], the IC50 is reported as 5 to 50 nM. In the case of `CCc1c(N2CCN(C(=O)CCO)CC2)c(=O)n2nc(C3=CCOCC3)nc2n1CC(=O)Nc1ccc(C(F)(F)F)cc1Cl` [Compound I-24, N-[2-chloro-4-(trifluoromethyl)phenyl]-2-[2-(3,6-dihydro-2H-pyran-4-yl)-5-ethyl-6-[4-(3-hydroxypropanoyl)piperazin-1-yl]-7-oxo-4H,7H-[1,2,4]triazolo[1,5-a]pyrimidin-4-yl]acetamide], the IC50 is reported as 5 to 50 nM.
